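Results reflect a 48-hour exposure of cells in 96-well plates to compound at five concentrations. At the GI50, growth is halved. Definition used: TGI = concentration required for complete inhibition of growth.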
What was measured:
Assay in all cases: DTP human tumour cell line panel, 48 h
[1] = tested on: CAKI-1 renal
[2] = tested on: NCI-H460 lung
[3] = tested on: MCF7 breast
[4] = tested on: MDA-N
[5] = tested on: OVCAR-4 ovarian
[6] = tested on: SR leukemia
[7] = tested on: CCRF-CEM leukemia
[8] = tested on: SK-OV-3 ovarian
[9] = tested on: MALME-3M melanoma
[10] = tested on: SNB-19 CNS
[11] = tested on: MDA-MB-435
[12] = tested on: OVCAR-3 ovarian
[13] = tested on: KM12 colon
[14] = tested on: RXF 393 renal
[15] = tested on: M14 melanoma
[16] = tested on: PC-3 prostate
[17] = tested on: TK-10 renal
[18] = tested on: HCT-116 colon
[19] = tested on: HS 578T breast
[20] = tested on: U251 CNS
[21] = tested on: BT-549 breast
[22] = tested on: T-47D breast
[23] = tested on: K-562 leukemia
[24] = tested on: SK-MEL-5 melanoma
[25] = tested on: SF-268 CNS
[26] = tested on: SN12C renal
[27] = tested on: A498 renal
[28] = tested on: IGROV1 ovarian
[29] = tested on: OVCAR-5 ovarian
[30] = tested on: HOP-92 NSCLC
[31] = tested on: HOP-62 NSCLC
[32] = tested on: DU-145 prostate
[33] = tested on: EKVX NSCLC
[34] = tested on: OVCAR-8 ovarian
[35] = tested on: SK-MEL-28 melanoma
[36] = tested on: SW-620 colon
[37] = tested on: MDA-MB-231 breast
[38] = tested on: 786-0 renal
[39] = tested on: A549 NSCLC
[40] = tested on: HCT-15 colon
[41] = tested on: NCI/ADR-RES ovarian
[42] = tested on: HT29 colon
[43] = tested on: COLO 205 colon
[44] = tested on: UO-31 renal
[45] = tested on: RPMI-8226 leukemia
[46] = tested on: NCI-H23 lung
[47] = tested on: LOX IMVI melanoma
[48] = tested on: MOLT-4 leukemia
[49] = tested on: UACC-257 melanoma
[50] = tested on: ACHN renal
[51] = tested on: SF-295 CNS
[52] = tested on: SNB-75 CNS
[53] = tested on: UACC-62 melanoma
[54] = tested on: SK-MEL-2 melanoma
[55] = tested on: NCI-H522 lung
[56] = tested on: SF-539 CNS
[57] = tested on: HL-60(TB) leukemia
[58] = tested on: HCC-2998 colon
[59] = tested on: NCI-H226 lung

SMILES: CN(C(=O)Cc1cccc(N=C=S)c1)[C@H]1CCCC[C@@H]1N1CCCC1
- TGI [1]: 29.5 µM
- TGI [2]: 36.3 µM
- TGI [3]: 27.5 µM
- TGI [4]: 27.7 µM
- TGI [5]: 28.5 µM
- TGI [6]: 29.2 µM
- TGI [7]: 32.9 µM
- TGI [8]: 69.4 µM
- TGI [9]: 40.5 µM
- TGI [10]: 47.6 µM
- TGI [11]: 27.8 µM
- TGI [12]: 28 µM
- TGI [13]: 32.1 µM
- TGI [14]: 25.9 µM
- TGI [15]: 41.1 µM
- TGI [16]: 32.2 µM
- TGI [17]: 24.3 µM
- TGI [18]: 26 µM
- TGI [19]: 45 µM
- TGI [20]: 32.3 µM
- TGI [21]: 23.8 µM
- TGI [22]: 26.8 µM
- TGI [23]: 53.2 µM
- TGI [24]: 20.4 µM
- TGI [25]: 36.4 µM
- TGI [26]: 29.5 µM
- TGI [27]: 32.8 µM
- TGI [28]: 28.1 µM
- TGI [29]: 36.1 µM
- TGI [30]: 29 µM
- TGI [31]: 33.2 µM
- TGI [32]: 27.7 µM
- TGI [33]: 39.6 µM
- TGI [34]: 42.2 µM
- TGI [35]: 32.8 µM
- TGI [36]: 36.2 µM
- TGI [37]: 31.8 µM
- TGI [38]: 28.6 µM
- TGI [39]: 33.9 µM
- TGI [40]: 31.2 µM
- TGI [41]: 79.8 µM
- TGI [42]: 26.4 µM
- TGI [43]: 25.2 µM
- TGI [44]: 29.3 µM
- TGI [45]: 32.3 µM
- TGI [46]: 29.5 µM
- TGI [47]: 31.3 µM
- TGI [48]: 29 µM
- TGI [49]: 28.9 µM
- TGI [50]: 27.2 µM
- TGI [51]: > 100 µM
- TGI [52]: 27.8 µM
- TGI [53]: 29.4 µM
- TGI [54]: 34.4 µM
- TGI [55]: 27.6 µM

SMILES: CCN(CC)CCSc1c2cc(OC)ccc2nc2ccc(OC)cc12
- TGI [1]: 22.9 µM
- TGI [2]: > 61 µM
- TGI [3]: > 100 µM
- TGI [4]: 8.97 µM
- TGI [5]: 16.9 µM
- TGI [6]: > 21.8 µM
- TGI [7]: > 22.6 µM
- TGI [8]: > 54.4 µM
- TGI [9]: 7.74 µM
- TGI [10]: > 65.7 µM
- TGI [56]: > 100 µM
- TGI [11]: 21.3 µM
- TGI [12]: 8.07 µM
- TGI [13]: > 71 µM
- TGI [15]: > 32.3 µM
- TGI [16]: 12.1 µM
- TGI [17]: 22.1 µM
- TGI [18]: 3.42 µM
- TGI [20]: > 53.1 µM
- TGI [21]: 21 µM
- TGI [23]: > 22.6 µM
- TGI [24]: 27.7 µM
- TGI [25]: 12.7 µM
- TGI [26]: 9.75 µM
- TGI [27]: 51.5 µM
- TGI [28]: 4.11 µM
- TGI [29]: 44.5 µM
- TGI [30]: 4.61 µM
- TGI [31]: > 75.4 µM
- TGI [32]: 3.56 µM
- TGI [33]: 29.7 µM
- TGI [34]: 35.3 µM
- TGI [35]: 32.7 µM
- TGI [36]: > 100 µM
- TGI [37]: 19.9 µM
- TGI [38]: 4.1 µM
- TGI [39]: > 70.9 µM
- TGI [40]: > 100 µM
- TGI [41]: > 25.9 µM
- TGI [57]: > 100 µM
- TGI [43]: 4.14 µM
- TGI [45]: 6.96 µM
- TGI [46]: > 25.7 µM
- TGI [48]: > 21.8 µM
- TGI [49]: 16.4 µM
- TGI [50]: 3.12 µM
- TGI [51]: > 57.5 µM
- TGI [52]: 31.8 µM
- TGI [53]: 33.5 µM
- TGI [54]: 44.6 µM
- TGI [58]: 40.5 µM
- TGI [55]: 3.1 µM
- TGI [59]: 53.8 µM

SMILES: COc1ccc(-c2cc(-c3cc(C)cc(Br)c3O)no2)cc1
- TGI [1]: 24 µM
- TGI [2]: 44.5 µM
- TGI [3]: 42.4 µM
- TGI [4]: > 100 µM
- TGI [5]: 13.2 µM
- TGI [6]: > 100 µM
- TGI [10]: 58 µM
- TGI [56]: 25 µM
- TGI [11]: > 100 µM
- TGI [12]: 23.9 µM
- TGI [13]: > 100 µM
- TGI [15]: > 100 µM
- TGI [16]: 33.5 µM
- TGI [17]: 38.5 µM
- TGI [18]: 28.5 µM
- TGI [19]: > 100 µM
- TGI [20]: 33.5 µM
- TGI [21]: 57.1 µM
- TGI [22]: 34 µM
- TGI [23]: > 100 µM
- TGI [24]: 24.3 µM
- TGI [25]: 22.8 µM
- TGI [26]: 85.2 µM
- TGI [27]: 13 µM
- TGI [28]: > 100 µM
- TGI [29]: 88.9 µM
- TGI [31]: 41.9 µM
- TGI [32]: 36.2 µM
- TGI [33]: 78.3 µM
- TGI [34]: > 100 µM
- TGI [35]: > 100 µM
- TGI [36]: > 100 µM
- TGI [37]: 64.6 µM
- TGI [38]: 31.6 µM
- TGI [39]: 57 µM
- TGI [40]: > 100 µM
- TGI [41]: > 100 µM
- TGI [57]: > 100 µM
- TGI [42]: > 100 µM
- TGI [44]: 31.9 µM
- TGI [45]: > 100 µM
- TGI [46]: 99.7 µM
- TGI [47]: > 100 µM
- TGI [48]: > 100 µM
- TGI [49]: > 100 µM
- TGI [50]: 24 µM
- TGI [51]: 14.4 µM
- TGI [52]: 8.73 µM
- TGI [53]: 38.9 µM
- TGI [54]: 75 µM
- TGI [55]: 30.2 µM
- TGI [59]: 42.4 µM

SMILES: N#Cc1ccccc1CSc1ncnc2nc[nH]c12
- GI50 [2]: 83.3 µM
- GI50 [4]: 83.3 µM
- GI50 [14]: 94.9 µM
- GI50 [19]: 51.9 µM
- GI50 [21]: 56.6 µM
- GI50 [23]: 67.2 µM
- GI50 [24]: 74.3 µM
- GI50 [30]: 28.6 µM
- GI50 [33]: 90.1 µM
- GI50 [37]: 51 µM
- GI50 [41]: 60.4 µM
- GI50 [44]: 47.4 µM
- GI50 [45]: 53.1 µM
- GI50 [48]: 80.3 µM
- GI50 [49]: 44.5 µM
- GI50 [52]: 9.8 µM
- TGI [52]: 67.1 µM
- GI50 [53]: 77.2 µM

SMILES: COc1cccc2c1C(=O)c1c(O)c3c(c(O)c1C2=O)CC(O)(C(=O)CO)CC3OC1CC(N2CCOCC2C#N)C(O)C(C)O1 (stereo not drawn)
- TGI [1]: 0.00425 µM
- TGI [4]: < 0.0001 µM
- TGI [6]: > 100 µM
- TGI [7]: < 0.0001 µM
- TGI [8]: 2.4 µM
- TGI [56]: < 0.0001 µM
- TGI [11]: < 0.0001 µM
- TGI [12]: 3.28 µM
- TGI [15]: < 0.0001 µM
- TGI [16]: < 0.0001 µM
- TGI [18]: 12.2 µM
- TGI [21]: 0.00113 µM
- TGI [22]: < 0.0001 µM
- TGI [26]: 0.00109 µM
- TGI [29]: 19.1 µM
- TGI [31]: < 0.0001 µM
- TGI [32]: > 100 µM
- TGI [33]: < 0.0001 µM
- TGI [35]: < 0.0001 µM
- TGI [36]: 0.0569 µM
- TGI [37]: < 0.0001 µM
- TGI [38]: 5.22 µM
- TGI [39]: > 100 µM
- TGI [40]: 1.56 µM
- TGI [41]: 0.00357 µM
- TGI [57]: < 0.0001 µM
- TGI [43]: < 0.0001 µM
- TGI [46]: 0.128 µM
- TGI [48]: < 0.0001 µM
- TGI [49]: < 0.0001 µM
- TGI [53]: < 0.0001 µM
- TGI [54]: < 0.0001 µM
- TGI [58]: < 0.0001 µM
- TGI [55]: < 0.0001 µM
- TGI [59]: < 0.0001 µM
